Experimental data published in patent US11998543B2, “Pharmaceutical composition comprising aldehyde inhibitor and anticancer agent for treatment of brain cancer” (Industry-Academic Cooperation Foundation, Yonsei University, priority 2018, dated 2024).

Tests used:
TS13-64 cells = test: WST cytotoxicity / cell viability assay (EZ-Cytox), 72 h drug treatment; format: cell-based, human; settings: for Measured value (cell viability) / Value expressed relative to administration alone: TS13-64; for Measured value (cell viability): G and P 10 μM each; for Measured value (cell viability) / Cancer cell killing (cytotoxicity), comparison in words: 72 h; for Value expressed relative to administration alone: viability with anticancer drug alone set to 1; for Cancer cell killing (cytotoxicity), comparison in words: TS13-64 cells, compared with single agents or other combinations, PTX and 5-FU at high concentration (H) vs TMZ alone
Protocol: (§1) Cultured tumorsphere-forming glioblastoma cells (GBM TS) were seeded into 96-well plates at a density of 10^4 cells/well and treated for 72 hours with a drug-containing medium prepared in a Preparation Example (a control group was treated with general culture medium), and then cytotoxicity to the cancer cells was measured by WST assay using EZ-Cytox reagent (DoGenBio, Seoul, Korea) according to the manufacturer's protocol.
(§2) For the present disclosure, two types of tumorsphere (TS)-forming glioblastoma (GBM) cells were used. TS13-64 cells are primary tumor cells derived from a GBM patient, and established from a new GBM tissue sample under the approval of the Institutional Review Board of the Yonsei University College of Medicine (approval Nos: 4-2012-0212 and 4-2014-0649). As U87 cells, spherical cells prepared by culturing the U87MG cell line under TS culture conditions were used. For TS culture, cells were treated with DMEM/F-12 medium containing 2 wt % 1×B27, 0.02 wt % bFGF (20 ng/ml), 0.02 wt % EGF (20 ng/ml) and 50 U/ml penicillin/[…] streptomycin (100×, Gibco, Invitrogen Korea, Seoul, South Korea), and all in vitro experiments were performed under TS culture conditions.
(§3) For use in in vitro experiments, gossypol (G) and phenformin (P, Sigma-Aldrich) were dissolved in DMSO and H2O, respectively, at a concentration of 10 μM. The anticancer drug temozolomide (TMZ, Sigma-Aldrich) was dissolved in DMSO and used at a concentration of 250 μM. As controls for the anticancer drug TMZ for co-administration with gossypol and phenformin, other anticancer drugs, paclitaxel (PTX) and fluorouracil (5-FU), were used. […] That is, in the same manner as TMZ, paclitaxel was prepared and used at a low concentration of 2 nM and a high concentration of 5 nM, and fluorouracil was prepared and used at a low concentration of 50 μM and a high concentration of 100 μM (low concentration is indicated by L, and high concentration is indicated by H).
as §1, with “in the” for “in a”
(§4) Evaluation of cytotoxicity to cancer cells and the sphere-forming ability of cells was performed in the same manner as in Example 1.
(§5) In order to more easily compare these effects, the cell viability value obtained upon administration of each anticancer drug alone was set to 1, and the cell viability value obtained upon co-administration was expressed relative to the cell viability value obtained upon administration of each anticancer drug alone.

U87 cells = test: as above; format: cell-based; settings: for Measured value (cell viability) / Value expressed relative to administration alone: U87; for Measured value (cell viability): G and P 10 μM each; for Measured value (cell viability) / Cancer cell killing (cytotoxicity), comparison in words: 72 h; for Value expressed relative to administration alone: viability with anticancer drug alone set to 1; for Cancer cell killing (cytotoxicity), comparison in words: spherical U87 cells, compared with single agents or other combinations, PTX and 5-FU at high concentration (H) vs TMZ alone
Protocol: as §1, §2, §3
as §1, with “in the” for “in a”
as §4, §5

[1] = high concentration (H): PTX 5 nM, 5-FU 100 μM
[2] = low concentration (L): PTX 2 nM, 5-FU 50 μM

CC(=O)O[C@H]1C(=O)[C@@]2(C)[C@H]([C@H](OC(=O)c3ccccc3)[C@]3(O)C[C@H](OC(=O)[C@H](O)[C@@H](NC(=O)c4ccccc4)c4ccccc4)C(C)=C1C3(C)C)[C@]1(OC(C)=O)CO[C@@H]1C[C@@H]2O [PTX, paclitaxel]
Measured value (cell viability) (TS13-64 cells; [1]): 0.675
Value expressed relative to administration alone (TS13-64 cells; [1]): 1.000
Measured value (cell viability) (TS13-64 cells; [2]): 0.764
Value expressed relative to administration alone (TS13-64 cells; [2]): 1.000
Cancer cell killing (cytotoxicity), comparison in words (TS13-64 cells): higher
Measured value (cell viability) (U87 cells; [1]): 0.720
Value expressed relative to administration alone (U87 cells; [1]): 1.000
Measured value (cell viability) (U87 cells; [2]): 0.947
Value expressed relative to administration alone (U87 cells; [2]): 1.000
Cancer cell killing (cytotoxicity), comparison in words (U87 cells): higher

O=c1[nH]cc(F)c(=O)[nH]1 [5FU, fluorouracil]
Measured value (cell viability) (TS13-64 cells; [1]): 0.756
Value expressed relative to administration alone (TS13-64 cells; [1]): 1.000
Measured value (cell viability) (TS13-64 cells; [2]): 0.826
Value expressed relative to administration alone (TS13-64 cells; [2]): 1.000
Cancer cell killing (cytotoxicity), comparison in words (TS13-64 cells): higher
Measured value (cell viability) (U87 cells; [1]): 0.804
Value expressed relative to administration alone (U87 cells; [1]): 1.000
Measured value (cell viability) (U87 cells; [2]): 0.980
Value expressed relative to administration alone (U87 cells; [2]): 1.000
Cancer cell killing (cytotoxicity), comparison in words (U87 cells): higher

Cn1nnc2c(C(N)=O)ncn2c1=O [TMZ, temozolomide]
Measured value (cell viability) (TS13-64 cells; TMZ 250 μM): 0.781
Value expressed relative to administration alone (TS13-64 cells; TMZ 250 μM): 1.000
Measured value (cell viability) (U87 cells; TMZ 250 μM): 0.879
Value expressed relative to administration alone (U87 cells; TMZ 250 μM): 1.000
